The source of these data is PubChem BioAssay AID342 (DTP/NCI, 2004).

Several values for one entry are separate records, joined by “and”; a condition that tells them apart may be missing. Equal entries are not always repeated.

The test system of this assay is Swiss mice, Sarcoma 180 sc, mean tumor weight T/C. The assay can be described thus: NCI In Vivo Anticancer Drug Screen. Data for tumor model Sarcoma 180 (subcutaneous) in Swiss mice. The settings on record: endpoint: mean tumor weight, higher = larger tumour. In a few lines: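 Transplantable tumors were established in mice, compound was given, then survival or tumor size was recorded. The treated value was divided by the vehicle-control value.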

Where [1] appears, read: dose: 125.0 mg/kg/injection, schedule: Q01DX007 (ip), vehicle: carboxymethylcellulose (CMC).
The mark [2] stands for this setting: dose: 250.0 mg/kg/injection, schedule: Q01DX007 (ip), vehicle: carboxymethylcellulose (CMC).

Regarding `COC(=O)C1C2CC3c4[nH]c5cc(OC)ccc5c4CCN3CC2CC(OC(=O)c2cc(OC)c(OC)c(OC)c2)C1OC` (configuration not stated), the T/C (commonly the ratio of treated to control) runs as follows: (dose: 0.5 mg/kg/injection, schedule: Q01DX007 (ip), vehicle: saline) 155 % of control; (dose: 1.0 mg/kg/injection, schedule: Q01DX007 (ip), vehicle: saline) 85 % of control; (dose: 2.0 mg/kg/injection, schedule: Q01DX007 (ip), vehicle: saline) 62 % of control; (dose: 4.0 mg/kg/injection, schedule: Q01DX007 (ip), vehicle: saline) 83 % of control and 85 % of control; (dose: 8.0 mg/kg/injection, schedule: Q01DX007 (ip), vehicle: saline) 115 % of control; (dose: 16.0 mg/kg/injection, schedule: Q01DX007 (ip), vehicle: saline) 92 % of control. Moreover, the T/C (dose: 32.0 mg/kg/injection, schedule: Q01DX007 (ip), vehicle: saline) is 90 % of control.

For the compound `CCOC(=O)Nc1ccc2c(c1)/C(=N\NC(N)=S)c1ccccc1-2`, the T/C reads like this: (dose: 5.0 mg/kg/injection, schedule: Q01DX007 (ip), vehicle: carboxymethylcellulose (CMC)) 86 % of control; (dose: 15.0 mg/kg/injection, schedule: Q01DX007 (ip), vehicle: carboxymethylcellulose (CMC)) 44 % of control; (dose: 30.0 mg/kg/injection, schedule: Q01DX007 (ip), vehicle: carboxymethylcellulose (CMC)) 55 % of control; (dose: 49.0 mg/kg/injection, schedule: Q01DX007 (ip), vehicle: carboxymethylcellulose (CMC)) 85 % of control; (dose: 60.0 mg/kg/injection, schedule: Q01DX007 (ip), vehicle: carboxymethylcellulose (CMC)) 63 % of control; (dose: 73.0 mg/kg/injection, schedule: Q01DX007 (ip), vehicle: carboxymethylcellulose (CMC)) 63 % of control. In addition, where the note is “dose: 110.0 mg/kg/injection, schedule: Q01DX007 (ip), vehicle: carboxymethylcellulose (CMC)”, the T/C was 112 % of control.

With `Cc1cc2nc3c(=O)[nH]c(=O)nc-3n(CCO)c2cc1C`, the T/C is, setting by setting: (dose: 60.0 mg/kg/injection, schedule: Q#A X014 (ip), vehicle: carboxymethylcellulose (CMC)) 78 % of control; (dose: 120.0 mg/kg/injection, schedule: Q#A X014 (ip), vehicle: carboxymethylcellulose (CMC)) 77 % of control; (dose: 240.0 mg/kg/injection, schedule: Q#A X014 (ip), vehicle: carboxymethylcellulose (CMC)) 76 % of control; (dose: 384.0 mg/kg/injection, schedule: Q01DX007 (ip), vehicle: carboxymethylcellulose (CMC)) 61 % of control; (dose: 480.0 mg/kg/injection, schedule: Q01DX007 (ip), vehicle: carboxymethylcellulose (CMC)) 62 % of control; (dose: 480.0 mg/kg/injection, schedule: Q#A X014 (ip), vehicle: carboxymethylcellulose (CMC)) 40 % of control. For the same compound, the T/C runs as follows: (dose: 640.0 mg/kg/injection, schedule: Q01DX007 (ip), vehicle: carboxymethylcellulose (CMC)) 82 % of control; (dose: 960.0 mg/kg/injection, schedule: Q01DX007 (ip), vehicle: carboxymethylcellulose (CMC)) 66 % of control.

Turning to `OCCOCC(F)(F)F`, the T/C runs as follows: (dose: 125.0 mg/kg/injection, schedule: Q01DX007 (ip), vehicle: saline) 100 % of control; (dose: 250.0 mg/kg/injection, schedule: Q01DX007 (ip), vehicle: saline) 101 % of control; (dose: 500.0 mg/kg/injection, schedule: Q01DX007 (ip), vehicle: saline) 63 % of control.

Turning to `Cc1ccc(NCC2(/N=C/c3ccccc3)OC(CO)C(O)C2O)cc1` (configuration not stated), the T/C (dose: 111.0 mg/kg/injection, schedule: Q#A X014 (ip), vehicle: methylcellulose (MC)) was 71 % of control and 72 % of control; the T/C (dose: 250.0 mg/kg/injection, schedule: Q#A X014 (ip), vehicle: methylcellulose (MC)) was 67 % of control and 90 % of control.

As for `COC(=O)C1C(O)CCC2CN3CCc4c([nH]c5ccccc45)C3CC21` (configuration not stated), the T/C (dose: 150.0 mg/kg/injection, schedule: Q01DX007 (ip), vehicle: carboxymethylcellulose (CMC)) is 72 % of control.

Regarding `S=C(N=Nc1ccccc1)NNc1ccccc1`, the T/C by setting is: (dose: 37.5 mg/kg/injection, schedule: Q01DX007 (ip), vehicle: carboxymethylcellulose (CMC)) 110 % of control; (dose: 75.0 mg/kg/injection, schedule: Q01DX007 (ip), vehicle: carboxymethylcellulose (CMC)) 47 % of control.

Turning to `O=C(O)c1c(-c2ccccc2)[nH]c2cc(Cl)ccc2c1=O`, the T/C is 87 % of control (dose: 55.5 mg/kg/injection, schedule: Q01DX007 (ip), vehicle: carboxymethylcellulose (CMC)); 51 % of control (dose: 83.0 mg/kg/injection, schedule: Q01DX007 (ip), vehicle: carboxymethylcellulose (CMC)); 25 % of control under setting [1].

As for `C[C@]12C=CC(=O)C=C1CC[C@@H]1[C@@H]2[C@@H](O)C[C@@]2(C)[C@H]1CC[C@]2(O)C(=O)CF`, the T/C is 77 % of control (dose: 6.0 mg/kg/injection, schedule: Q01DX007 (sc), vehicle: steriod suspending solution); 91 % of control (dose: 9.0 mg/kg/injection, schedule: Q01DX007 (sc), vehicle: steriod suspending solution); 82 % of control (dose: 13.3 mg/kg/injection, schedule: Q01DX007 (sc), vehicle: steriod suspending solution); 35 % of control and 49 % of control and 54 % of control (dose: 20.0 mg/kg/injection, schedule: Q01DX007 (sc), vehicle: steriod suspending solution); 32 % of control (dose: 45.0 mg/kg/injection, schedule: Q01DX007 (sc), vehicle: steriod suspending solution); 27 % of control and 32 % of control and 36 % of control (dose: 70.0 mg/kg/injection, schedule: Q01DX007 (sc), vehicle: steriod suspending solution). Moreover, the T/C by setting is: (dose: 107.0 mg/kg/injection, schedule: Q01DX007 (sc), vehicle: steriod suspending solution) 32 % of control; (dose: 158.0 mg/kg/injection, schedule: Q01DX007 (sc), vehicle: steriod suspending solution) 36 % of control; (dose: 160.0 mg/kg/injection, schedule: Q01DX007 (sc), vehicle: steriod suspending solution) 24 % of control; (dose: 352.0 mg/kg/injection, schedule: Q01DX007 (sc), vehicle: steriod suspending solution) 52 % of control; (dose: 358.0 mg/kg/injection, schedule: Q01DX007 (sc), vehicle: steriod suspending solution) 33 % of control; (dose: 360.0 mg/kg/injection, schedule: Q01DX007 (sc), vehicle: steriod suspending solution) 33 % of control. The T/C reads like this: (dose: 537.0 mg/kg/injection, schedule: Q01DX007 (sc), vehicle: steriod suspending solution) 39 % of control and 56 % of control; (dose: 540.0 mg/kg/injection, schedule: Q01DX007 (sc), vehicle: steriod suspending solution) 20 % of control and 22 % of control; (dose: 801.0 mg/kg/injection, schedule: Q01DX007 (sc), vehicle: steriod suspending solution) 49 % of control; (dose: 1202.0 mg/kg/injection, schedule: Q01DX007 (sc), vehicle: steriod suspending solution) 61 % of control.

For `COc1ccc2c(c1)CC[C@@H]1[C@@H]2CC[C@]2(C)C=CC[C@@H]12`, the T/C is 104 % of control (dose: 2.5 mg/kg/injection, schedule: Q01DX007 (sc), vehicle: steriod suspending solution); 91 % of control (dose: 5.0 mg/kg/injection, schedule: Q01DX007 (sc), vehicle: steriod suspending solution); 75 % of control (dose: 10.0 mg/kg/injection, schedule: Q01DX007 (sc), vehicle: steriod suspending solution).

With `CC(=O)NC(CCC(=O)C=[N+]=N)C(=O)O` (configuration not stated), the T/C was 62 % of control and 80 % of control (dose: 0.03 mg/kg/injection, schedule: Q01DX007 (ip), vehicle: water); 58 % of control and 63 % of control (dose: 0.05 mg/kg/injection, schedule: Q01DX007 (ip), vehicle: water); 13 % of control and 26 % of control (dose: 0.1 mg/kg/injection, schedule: Q01DX007 (ip), vehicle: water); 1 % of control (dose: 0.2 mg/kg/injection, schedule: Q01DX007 (ip), vehicle: water).

Consider `CC1(C)OCC(C(OC(=O)c2ccccc2)C(OC2CCCCO2)C2COC(C)(C)O2)O1` (configuration not stated), for which the T/C (dose: 62.5 mg/kg/injection, schedule: Q01DX007 (ip), vehicle: carboxymethylcellulose (CMC)) is 90 % of control; the T/C under setting [1] is 86 % of control; the T/C under setting [2] was 100 % of control.

In the case of `C(=N\N(c1ccccc1)c1ccccc1)/C(=C/c1ccccc1)c1ccccc1`, the T/C reads like this: under setting [1], 85 % of control; under setting [2], 92 % of control; (dose: 500.0 mg/kg/injection, schedule: Q01DX007 (ip), vehicle: carboxymethylcellulose (CMC)) 102 % of control.
